The target in experiment [1] is T1, renin (Homo sapiens, UniProt P00797).
T1 sequence (P00797 67-406): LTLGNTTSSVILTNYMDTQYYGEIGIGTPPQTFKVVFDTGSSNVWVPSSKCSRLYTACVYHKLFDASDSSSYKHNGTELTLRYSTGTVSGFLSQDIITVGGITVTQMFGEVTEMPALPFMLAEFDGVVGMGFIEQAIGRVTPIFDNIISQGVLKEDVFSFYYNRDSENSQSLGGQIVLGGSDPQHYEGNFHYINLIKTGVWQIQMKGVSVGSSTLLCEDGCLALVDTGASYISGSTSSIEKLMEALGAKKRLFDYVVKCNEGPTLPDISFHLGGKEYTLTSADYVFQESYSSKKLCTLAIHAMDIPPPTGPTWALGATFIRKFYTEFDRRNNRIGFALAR
The experiment is described as follows: renin inhibition (IC50 printed in the synthesis example, no method described). It is filed as biochemical.

Experiment [2] has as its system hog renin. To be noted: after the injection of hog renin into nephrectomized rats; Gross et al., Science 175:656, 1972; cited from earlier work.

This is an account of results in patent EP0278158A2, “Renin inhibitors containing phenylalanyl-histidine replacements” (Merck & Co., Inc., priority 1986, dated 1988).

Non-standard residues stand in square brackets, D forms with d. Residues, ends and D or L forms follow the SMILES beside them. *: point of attachment. Sta = CC(C)C[C@H](N)[C@@H](O)CC(=O)O; Isovaleryl = CC(C)CC(=O)*

For orientation: IC50 means the midpoint of a concentration-inhibition curve. Compound `CC(C)S(=O)(=O)C[C@@H](CCc1ccccc1)C(=O)N[C@@H](Cc1cnc[nH]1)C(=O)N[C@@H](CC1CCCCC1)[C@@H](O)CC(=O)NC1CN2CCC1CC2` (stereo partly drawn) [3-benzyl-2-(S)-(isopropylsuffonylmethyl)propionyl-L-histidyl-(3S,4S)-4-amino-5-cyclohexyl 3-hydroxypentanoyl 3-quinuclidinyl amide] displayed an IC50 in experiment [1] of 11 nM. That is a double-digit nanomolar value. Turning to `CC(C)CC(=O)N[C@H](C(=O)N[C@H](C(=O)N[C@@H](CC(C)C)[C@@H](O)CC(=O)N[C@@H](C)C(=O)N[C@@H](CC(C)C)[C@@H](O)CC(=O)O)C(C)C)C(C)C` [pepstatin] (Isovaleryl-VV[Sta]A[Sta]-OH), in experiment [2], the “blood pressure in vivo” value was “reduces blood pressure”.
